Reference: patent US20220387317A1, “METHODS AND COMPOSITIONS RELATING TO SELECTIVE INTRACELLULAR DELIVERY OF CD38 INHIBITORS” (Ohio State Innovation Foundation, priority 2019, published 2022)
Entries after “also recorded” stand apart in the source; their conditions may differ.

Tests used:
[1] = system: Sprague Dawley rats; assay: Rat liver hilar clamp model of IRI (segmental 70% ischemia); format: in vivo
From the text: In Vitro: Primary liver cells subjected to H2O2-induced oxidative stress injury. In Vivo: Liver IRI induced in Sprague Dawley rats using a segmental (70% ischemia) hilar clamp model. Markers of liver injury including plasma ALT and AST, tissue MDA, ATP, and GSH, and histology assessed. • b) Results Hypoxic HSCs had increased CD38 expression (FIG. 11) and CD38 activity measured by fluorometric assay (FIG. 12). CD38 expression, activity, and hepatocellular injury increased with duration of ischemia in a rat hilar clamp model of IRI: Sprague-Dawley rats underwent a hilar clamp procedure to induce IRI for 30, 60, 90, 120 min of ischemia followed by 6 h reperfusion. Tissue CD38 expression was measured by Western blot (FIG. 15A), serum ALT by colorimetric assay at 0, 30, 180, 360 min post reperfusion (FIG. 15B), and CD38 activity at all ischemia time points (FIG. 15C). CD38 inhibition increases cell viability, decreases intracellular ROS formation and ET-1 production in HSCs exposed to hypoxia/oxidant stress: Primary rat HSCs were exposed to 3 h hypoxia (0% 02) and 2 h oxidant stress (H2O2). […] Rat model of marginal donor organ recapitulates the inflammatory environment of a discarded “high risk” human donor organ: Control rats have little steatosis by H&E (FIG. 18A) and mild CD38 expression by IHC (FIG. 18B). Rats fed a methionine choline deficient (MCD) diet have severe steatosis by H&E (FIG. 18C) and high CD38 expression co-localizing with GFAP positive HSCs by IHC (FIG. 18D).

[2] = target: T1, CD38 (Rattus norvegicus, UniProt Q64244); assay: CD38 activity during hepatic IRI; format: in vivo
T1 construct: Liver IRI induced in Sprague Dawley rats using a segmental (70% ischemia) hilar clamp model; from tissue; host or cells: rat liver (Sprague Dawley, hilar clamp ischemia/reperfusion)
T1 sequence (Q64244 1-303): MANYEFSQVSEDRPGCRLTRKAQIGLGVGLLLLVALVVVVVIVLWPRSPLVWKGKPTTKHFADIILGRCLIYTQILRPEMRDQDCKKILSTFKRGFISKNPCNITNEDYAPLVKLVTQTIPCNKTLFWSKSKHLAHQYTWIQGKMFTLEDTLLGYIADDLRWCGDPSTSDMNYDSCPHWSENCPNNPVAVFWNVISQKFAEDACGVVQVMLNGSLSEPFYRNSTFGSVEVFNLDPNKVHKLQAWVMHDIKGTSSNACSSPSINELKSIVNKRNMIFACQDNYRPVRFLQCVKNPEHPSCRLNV
From the text: In Vitro: Primary liver cells subjected to H2O2-induced oxidative stress injury. In Vivo: Liver IRI induced in Sprague Dawley rats using a segmental (70% ischemia) hilar clamp model. […] Additionally, CD38 activity correlated with increased ischemic time (FIGS. 15A and 15C). However, Apigenin treatment attenuated liver IRI (FIG. 16). […] Additionally, Apigenin treatment improves tissue MAD, ATP and GSH. Lastly, Apigenin treatment preserves tissue architecture.

O=c1cc(-c2ccc(O)cc2)oc2cc(O)cc(O)c12 [Apigenin]
tissue architecture ([1]; histology, liver IRI): preserves
liver IRI (injury) ([1]; intrahepatic delivery, 1 h of ischemia and 6 h of reperfusion, FIG. 16): attenuated; also recorded: protection from injury; also recorded: decreased injury
tissue ATP ([1]; liver tissue, liver IRI): improves
tissue GSH ([1]; liver tissue, liver IRI): improves
tissue MDA (malondialdehyde) ([1]; liver tissue, liver IRI): improves
ALT ([1]; plasma, liver IRI): improves
AST ([1]; plasma, liver IRI): improves
CD38 activity during IRI ([2]; FIG. 14): rescued
CD38 activity during IRI ([2]; FIG. 14, listed as Inhibitor): decreases
